Assay results as given in US7781565B2 (priority 2006, dated 2010).
“Also recorded” adds a separate entry of the source.

These substances were tested on NCI-60 cell lines.
Assay type: cell-based, human

| Substance | Cell Line the peptide is associated with (peptide recovered from phage library selection on this NCI-60 cell line) | Cell Line (NCI-60 cell line the peptide is associated with) | Cell Line with which the peptide (and its tripeptide motif) is associated | Cell Line (NCI-60 cell line the peptide and its motif are associated with) |
| --- | --- | --- | --- | --- |
| SRGSYGS | MDA-MB-435-Breast | – | – | – |
| LWGLGWL | – | HCC-2998-Colon | – | – |
| PRSSYNE | – | – | H460-Lung | – |
| LGGLGLS | – | – | – | OVCAR-5 Ovarian |
| AKLGSVY | – | – | H226-Lung | – |
| ISGVSDD | BT-549 Breast | – | – | – |
| FAAGAGS | – | – | – | 786-0 Renal |
| ASLPMLH | ACHN Renal | – | – | – |
| GRLRLRV | – | SF-295 CNS | – | – |
| LRSYAWS | – | SNB-19 CNS; also recorded: SF-539 CNS | – | – |
| DGEGAGL | – | SNB-75 CNS | – | – |
| QGYALRV | – | – | H23-Lung | – |
| VYGWGGS | – | – | – | DU-145 Prostate |
| VLRGSTP | – | – | – | PC3 Prostate |
| ACGSGLD | – | – | – | SK-MEL-5 Melanoma |
| LSLAGAG | – | HT-29 Colon | – | – |
| GARAVAP | HS 578 T Breast | – | – | – |
| HRGGSQS | – | – | Molt-4-Leukemia | – |
| RRHGLLS | – | – | K-562-Leukemia | – |
| VRVSLNS | MDA-MB-231 Breast | – | – | – |
| LPLGLVS | T-47D Breast | – | – | – |
| LRFRRGV | – | – | – | PC3 Prostate |
| PRLSDKS | – | – | – | SK-MEL-28 Melanoma |

| Substance | Cell Line the peptide is associated with (peptide recovered from phage library selection on this NCI-60 cell line) | Cell Line (NCI-60 cell line the peptide is associated with) | Cell Line with which the peptide (and its tripeptide motif) is associated | Cell Line (NCI-60 cell line the peptide and its motif are associated with) |
| --- | --- | --- | --- | --- |
| LVSVNGA | – | SNB-19 CNS; also recorded: SF-539 CNS | – | – |
| FSLGSSP | UO31 Renal | – | – | – |
| RRVSCDL | – | – | Hop-62-Lung | – |
| RGVSGRL | – | – | – | SK-MEL-28 Melanoma |
| SRAVIDM | – | – | CCRF-CEM Leukemia | – |
| PTGEGLR | – | – | – | SK-MEL-5 Melanoma |
| EVGGGLT | – | – | CCRF-CEM Leukemia | – |
| NRSSAKF | – | – | K-562-Leukemia | – |
| SVLGGRL | – | – | EKVX-Lung | – |
| LIGPGGR | – | – | H322-Lung | – |
| GVAIGRL | CAIK-1 Renal | – | – | – |
| TWSTGGR | – | LOX-IMVI Melanoma | – | – |
| SAGLLPS | – | – | – | OVCAR-5 Ovarian |
| HVSGGSG | – | – | Hop-92-Lung | – |
| LVGRVKL | – | HT-29 Colon | – | – |
| YAGSGQL | – | – | – | OVCAR-8 Ovarian |
| ASYAGLV | – | – | – | IGROV1 Ovarian |
| GSLGVSL | – | – | H226-Lung | – |
| LRSVGSW | – | HCT-15 Colon | – | – |
| LGLRGGA | – | SF-268 CNS | – | – |
| TRLSFRH | – | – | – | SK-OV-3-3 Ovarian |
| YADGAAV | – | SF-295 CNS | – | – |
| PIGAVMN | – | – | – | DU-145 Prostate |

| Substance | Cell Line the peptide is associated with (peptide recovered from phage library selection on this NCI-60 cell line) | Cell Line (NCI-60 cell line the peptide is associated with) | Cell Line with which the peptide (and its tripeptide motif) is associated | Cell Line (NCI-60 cell line the peptide and its motif are associated with) |
| --- | --- | --- | --- | --- |
| HTYGVRF | TK-10 Renal | – | – | – |
| TRASRRG | – | SNB-75 CNS | – | – |
| LRAGGSY | – | – | – | IGROV1 Ovarian |
| LIGGLLS | – | – | – | SK-MEL-5 Melanoma |
| EGRLMLA | – | – | – | MALME-3M Melanoma |
| LVSTSNR | – | – | – | SK-MEL-2 Melanoma |
| GRLLAGG | – | – | Hop-92-Lung | – |
| YATLGSS | – | – | – | PC3 Prostate |
| ASLSVVI | UO31 Renal | – | – | – |
| GVSIYDL | SN12C Renal | – | – | – |
| RLLSEGY | – | SNB-75 CNS | – | – |
| PLRSVWS | – | SF-268 CNS | – | – |
| NSQRSSV | – | – | – | UACC 257 Melanoma |
| PRHRASQ | – | – | – | OVCAR-8 Ovarian |
| RLSTFAG | – | SNB-19 CNS; also recorded: SF-539 CNS | – | – |
| DVHARGD | NCI/ADR-RES Breast | – | – | – |
| LLNPARG | SN12C Renal | – | – | – |
| SSRMGLV | – | – | SR Leukemia | – |
| HTRAVSE | – | – | – | OVCAR-8 Ovarian |
| SFGVLSG | HS 578 T Breast | – | – | – |
| SSRGGSS | – | MALME-3M Melanoma | – | – |
| GRLWGFW | – | – | H226-Lung | – |
| FDRAVAN | – | – | Hop-62-Lung | – |

| Substance | Cell Line the peptide is associated with (peptide recovered from phage library selection on this NCI-60 cell line) | Cell Line (NCI-60 cell line the peptide is associated with) | Cell Line with which the peptide (and its tripeptide motif) is associated | Cell Line (NCI-60 cell line the peptide and its motif are associated with) |
| --- | --- | --- | --- | --- |
| QGLVRGG | – | – | – | OVCAR-4 Ovarian |
| ALVSRRG | – | – | Molt-4-Leukemia | – |
| AGLQHAV | – | HCT-15 Colon | – | – |
| LKAGLRS | – | – | – | OVCAR-5 Ovarian |
| DRASSWA | – | – | – | A498 Renal |
| RRGSVAE | HS 578 T Breast | – | – | – |
| GLGAVGW | – | HT-29 Colon | – | – |
| FHFGGSG | – | – | – | OVCAR-5 Ovarian |
| PNSAGSV | SN12C Renal | – | – | – |
| RERGAVQ | – | – | CCRF-CEM Leukemia | – |
| GSSWVVD | – | – | A549-Lung | – |
| SHRVSDS | – | – | K-562-Leukemia | – |
| SAAGRTF | – | – | – | SK-MEL-2 Melanoma |
| LAGSTRR | – | – | SR Leukemia | – |
| AAVGTAL | RXF393 Renal | – | – | – |
| GSSLHLL | – | – | RPMI-8226-Leukemia | – |
| WVGPSGG | – | – | – | SK-MEL-5 Melanoma |
| AGSVYSV | – | – | – | OVCAR-5 Ovarian |
| ASVRAGR | – | – | Molt-4-Leukemia | – |
| PGGGRGR | UO31 Renal | – | – | – |
| PFHRRAV | T-47D Breast | – | – | – |
| SYWVGSS | MCF-7 Breast | – | – | – |
| VGRLQTT | – | – | – | UACC62 Melanoma |

| Substance | Cell Line the peptide is associated with (peptide recovered from phage library selection on this NCI-60 cell line) | Cell Line (NCI-60 cell line the peptide is associated with) | Cell Line with which the peptide (and its tripeptide motif) is associated | Cell Line (NCI-60 cell line the peptide and its motif are associated with) |
| --- | --- | --- | --- | --- |
| DLGSVQH | – | HT-29 Colon | – | – |
| TSGAVAP | HS 578 T Breast | – | – | – |
| GVAGGAT | – | SW620-Colon | – | – |
| VSAASSV | RXF393 Renal | – | – | – |
| TRGDAVS | – | SF-295 CNS | – | – |
| RAVWRAS | – | – | – | SK-MEL-2 Melanoma |
| GGSPGVW | – | – | – | SK-MEL-5 Melanoma |
| LLSTVWV | TK-10 Renal | – | – | – |
| GPFRAVP | – | COLO-205-Colon | – | – |
| GRRVSLV | – | – | SR Leukemia | – |
| ALVSFSV | – | – | EKVX-Lung | – |
| DRYMLRS | – | – | H460-Lung | – |
| RLETLLS | UO31 Renal | – | – | – |
| FTSGVSW | – | COLO-205-Colon | – | – |
| DAGSDRR | – | – | EKVX-Lung | – |
| DENRAGL | – | – | – | DU-145 Prostate |
| GVLPVVT | – | HCT-15 Colon | – | – |
| SRHGLVR | – | HCT-15 Colon | – | – |
| GGVLGSD | – | LOX-IMVI Melanoma | – | – |
| KYYGLRR | – | – | RPMI-8226-Leukemia | – |
| AVGRGSG | – | – | Hop-92-Lung | – |
| RQLVSPA | – | HT-29 Colon | – | – |
| PVGGVLL | – | – | A549-Lung | – |

| Substance | Cell Line the peptide is associated with (peptide recovered from phage library selection on this NCI-60 cell line) | Cell Line (NCI-60 cell line the peptide is associated with) | Cell Line with which the peptide (and its tripeptide motif) is associated | Cell Line (NCI-60 cell line the peptide and its motif are associated with) |
| --- | --- | --- | --- | --- |
| GVLLWRP | – | – | – | UACC62 Melanoma |
| SSGSVDS | – | – | H322-Lung | – |
| GDSRRGV | – | – | Hop-62-Lung | – |
| RWRSGRV | – | HT-29 Colon | – | – |
| LGLSGLG | NCI/ADR-RES Breast | – | – | – |
| VARGQMQ | – | – | H226-Lung | – |
| YGSGGRG | – | HT-29 Colon | – | – |
| NVGGGRF | NCI/ADR-RES Breast | – | – | – |
| IGLRGEN | – | SNB-75 CNS | – | – |
| GDATLVS | – | – | – | 786-0 Renal |
| WGVAGLG | – | HT-29 Colon | – | – |
| RLSSAPS | – | – | – | M14 Melanoma |
| LGGSGRR | – | – | H23-Lung | – |
| GRLRASL | – | SF-295 CNS | – | – |
| GAGTSEG | TK-10 Renal | – | – | – |
| HAWDRGV | MDA-MB-231 Breast | – | – | – |
| RGPSQVL | – | – | – | PC3 Prostate |
| DVPGVRF | – | – | EKVX-Lung | – |
